Consider three molecules from ChEMBL document CHEMBL1122904, “Bioactive conformation of 1-arylpiperazines at central serotonin receptors” (J Med Chem, 1985).

pKi: −log10 of the molar value.

This assay deals with 5-hydroxytryptamine receptor 1B (Rattus norvegicus, UniProt P28564). Description: Intrinsic affinity towards serotonin receptor from rat frontal cortex by displacement of [3H]5-HT. Format: tissue-based.
Sequence of 5-hydroxytryptamine receptor 1B (P28564 whole entry): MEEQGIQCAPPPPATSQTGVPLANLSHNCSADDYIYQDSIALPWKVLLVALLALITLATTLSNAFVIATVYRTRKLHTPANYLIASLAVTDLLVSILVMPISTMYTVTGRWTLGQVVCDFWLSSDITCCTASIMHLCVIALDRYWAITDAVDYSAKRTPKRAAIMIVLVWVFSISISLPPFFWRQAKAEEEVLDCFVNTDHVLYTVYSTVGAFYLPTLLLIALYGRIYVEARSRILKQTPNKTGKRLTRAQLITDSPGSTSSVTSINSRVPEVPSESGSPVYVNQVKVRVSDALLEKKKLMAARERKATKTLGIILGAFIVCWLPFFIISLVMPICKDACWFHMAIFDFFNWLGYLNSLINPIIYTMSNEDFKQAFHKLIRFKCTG

In turn, `FC(F)(F)c1cccc(N2CCNCC2)c1` showed a negative logarithm of the Ki (pKi) of 6.94.

Turning to `FC(F)(F)c1ccc2c(c1)N1CCNCC1CC2` (stereo not drawn), the negative-log Ki (pKi) is 7.17.

For `Clc1cncc(N2CCNCC2)n1` [MK-212], the negative-log Ki (pKi) was 5.44.
